Laboratory results taken from patent publication US20170022171A1, “2,5-DISUBSTITUTED CYCLOPENTANECARBOXYLIC ACIDS AND THEIR USE” (Bayer Pharma Aktiengesellschaft, priority 2014, published 2017).

System: rat hepatocytes
Assay: Hepatocyte assay for determination of metabolic stability
Format: in vitro ADME
Conditions: after incubation with rat hepatocytes
Description: The metabolic stability of test compounds towards hepatocytes is determined by incubating the compounds at low concentrations (preferably below or around 1 μM) and at low cell counts (preferably at 1*10^6 cells/ml) in order to ensure maximum linearity of kinetic conditions in the experiment. Seven samples from the incubation solution are taken for the LC-MS analysis within a fixed time pattern, in order to determine the half-life (i.e. the degradation) of the particular compound. This half life is used to calculate various “Clearance” parameters (CL) and “Fmax” values (see below).
The CL and Fmax values are a measure of the phase 1 and phase 2 metabolism of the compounds in the hepatocytes. In order to minimize the influence of the organic solvent on the enzymes in the incubation batches, the concentration thereof is generally limited to 1% (acetonitrile) or 0.1% (DMSO).
For all species and breeds, a hepatocyte cell count in the liver of 1.1*10^8 cells/g of liver is expected.
The parameters calculated and the meanings thereof are: • Fmax well-stirred [%] maximum possible bioavailability after oral administration • Calculation: (1−CLblood well-stirred/QH)*100 • CLblood well-stirred [L/(h*kg)] calculated blood clearance (well-stirred model) • Calculation: (QH*CL′intrinsic)/(QH+CL′intrinsic) • CL′intrinsic[ml/(min*kg)] maximum ability of the liver (of the hepatocytes) to metabolize a compound (assuming that the liver blood flow is not rate-limiting) • Calculation: CL′intrinsic, apparent*species-specific hepatocyte count [1.1*10^8/g liver]*species-specific liver weight [g/kg] • CL′intrinsic, apparent[ml/(min*mg)] normalizes the elimination constant by dividing it by the hepatocyte cell count x used (x*10^6/ml) • Calculation: ke1[1/min]/(cell count [x*10^6]/incubation volume [ml]) • (QH=species-specific liver blood flow).

In the case of `O=C(O)[C@H]1[C@H](Cn2nnc3ccc(C(F)(F)F)cc3c2=O)CC[C@@H]1C(=O)c1ccc(OCc2ccccc2)cc1` (racemic) [Example 11, (+/−)-(1RS,2RS,5SR)-2-[4-(Benzyloxy)benzoyl]-5-{[4-oxo-6-(trifluoromethyl)-1,2,3-benzotriazin-3(4H)-yl]methyl}cyclopentanecarboxylic acid], the “CLblood (calculated blood clearance, well-stirred)” value is reported as 1.12 L/h/kg and the “Fmax (maximum possible bioavailability after oral administration, well-stirred)” value is reported as 73.3%.
